Measured values reported in paper PMC7957705 (Molecules, 2021).
Entries after “also recorded” stand apart in the source; their conditions may differ. Marks after values point to notes of the source that are not given here. Where a SMILES comes first, the peptide text is derived from it. Bridges are numbered along the chain shown (N, C = ends). Triazole bridges read from a SMILES are 1,4-linked. [ ]: non-standard residue; d: D form. The star is where a group is joined. Benzoyl(4-guanidino) = N=C(N)Nc1ccc(C(=O)*)cc1; Aha = [N-]=[N+]=NCC[C@H](N)C(=O)O; β3hV = CC(C)[C@H](N)CC(=O)O; Nle = CCCC[C@H](N)C(=O)O; Pra = C#CC[C@H](N)C(=O)O

How the values were obtained:
[1] = test system: high-fat diet-induced obese C57BL/6 mice; experiment: Diet-induced obesity model: blood biochemistry; type: in vivo, mouse; details: for Insulin / Total Cholesterol / Triglyceride: High-Fat Diet mice
Experimental: Male C57BL/6 mice at 4 weeks of age were provided by BioLasco Taiwan (under Charles River Laboratories Licensee). All animals were maintained in an environment with well-controlled temperature (20–24 °C) and humidity (30–70%) with 12 h light/dark cycles. Free access to standard lab diet (MFG (Oriental Yeast Co., Ltd., Japan)) and autoclaved tap water was granted. All aspects of this work including housing, experimentation, and animal disposal were performed in general accordance with the “Guide for the Care and Use of Laboratory Animals: Eighth Edition” (National Academies Press, Washington, D.C., 2011) in our laboratory animal facility accredited by the […]. In addition, the protocol for animal care and use was reviewed and approved by the Institutional Animal Care and Use Committee (IACUC) at Pharmacology Discovery Services Taiwan, Ltd.
ALT (Alanine aminotransferase) and AST (Aspartate aminotransferase) assay kit (Denka Seiken, Japan), Cholesterol assay kit (Denka, Japan), Creatinine assay kit (Denka Seiken, Japan), Mouse insulin ELISA kit (Crystal chem, Elk Grove Village, IL, USA), Na^+/K^+ assay kit (Toshiba, Japan), Triglyceride assay kit (Sentinel Diagnostics, Milano, Italy) and Water for injection (Tai-Yu, Taiwan).
The protocol was performed for all groups and all animals. Male C57BL/6 mice were fed a high-fat diet (HFD) (60% of calories) or a standard chow diet (STD) from 4 weeks of age. Thirty (30) mice were fed the HFD and 10 mice were fed the STD (for 8 weeks before treatment) for a total of 20 weeks. The mice assigned to the STD diet were maintained on this diet throughout the study as a reference group of lean control mice. From Week 9, HFD-fed mice were grouped by body weight before dosing. Body weight was recorded three times weekly from Week 9. Food/water intake was recorded twice weekly from Week 9. Blood chemistry analyzes were performed in Weeks 8 (before dosing, Day 56), 16 (Day 113) and 20 (Day 141), including serum insulin, total cholesterol (T-CHO), triglyceride (TG), alanine aminotransferase (ALT), aspartate aminotransferase (AST), uric acid (UA), creatinine, potassium (K^+) and sodium (Na^+). At the termination in Week 20 (Day 141), the adipose tissue weight, including epididymal, mesenteric, inguinal, retroperitoneal, and brown fat, was measured after the animals were sacrificed. Two-way ANOVA followed by Bonferroni’s tests were applied to ascertain the difference between vehicle control and treated animals. Significance was set at p < 0.05 level. The following parameters were measured: (1) body weight three times weekly; (2) food/water intake twice weekly; (3) blood chemistry in Weeks 8 (before dosing), 16 and 20 including glucose, insulin, serum lipids (triglycerides (TG), total cholesterol (TC), AST, alanine aminotransferase (ALT), uric acid, creatinine, potassium and sodium through 16-h fasting animals; and finally, (4) total body fat (including visceral and subcutaneous fat) in Week 20.

[2] = test system: high-fat diet-induced obese C57BL/6 mice; experiment: Diet-induced obesity model: food and water intake; type: in vivo, mouse; details: 5 and 10 mg/kg i.p. once daily, HFD mice
Experimental: Male C57BL/6 mice at 4 weeks of age were provided by BioLasco Taiwan (under Charles River Laboratories Licensee). All animals were maintained in an environment with well-controlled temperature (20–24 °C) and humidity (30–70%) with 12 h light/dark cycles. Free access to standard lab diet (MFG (Oriental Yeast Co., Ltd., Japan)) and autoclaved tap water was granted. […]
The protocol was performed for all groups and all animals. […] Body weight was recorded three times weekly from Week 9. Food/water intake was recorded twice weekly from Week 9. […] At the termination in Week 20 (Day 141), the adipose tissue weight, including epididymal, mesenteric, inguinal, retroperitoneal, and brown fat, was measured after the animals were sacrificed. […] The following parameters were measured: (1) body weight three times weekly; (2) food/water intake twice weekly; (3) blood chemistry in Weeks 8 (before dosing), 16 and 20 including glucose, insulin, serum lipids (triglycerides (TG), total cholesterol (TC), AST, alanine aminotransferase (ALT), uric acid, creatinine, potassium and sodium through 16-h fasting animals; and finally, (4) total body fat (including visceral and subcutaneous fat) in Week 20.

[3] = 5 and 10 mg/kg i.p. once daily for 12 weeks, day 113 and day 141
[4] = 5 or 10 mg/kg i.p. daily, HFD mice
[5] = 5 or 10 mg/kg i.p. daily, Day 113 and Day 141
[6] = 5 mg/kg QD x 12 weeks IP, Day 56 (before dosing), mean
[7] = 5 mg/kg QD x 12 weeks IP, Day 113, mean
[8] = 5 mg/kg QD x 12 weeks IP, Day 141, mean
[9] = 10 mg/kg QD x 12 weeks IP, Day 56 (before dosing), mean
[10] = 10 mg/kg QD x 12 weeks IP, Day 113, mean
[11] = 10 mg/kg QD x 12 weeks IP, Day 141, mean

Q: `CCCC[C@@H]1NC(=O)[C@@H](NC(=O)c2ccc(NC(=N)N)cc2)CCn2cc(nn2)C[C@@H](C(=O)N[C@@H](Cc2c[nH]c3ccccc23)C(=O)O)NC(=O)[C@@H]2CCCN2C(=O)[C@H](CCCNC(=N)N)NC(=O)C[C@H](C(C)C)NC(=O)[C@H](CCCNC(=N)N)NC(=O)[C@H](CC(C)C)NC1=O` [GPS18169] ({Benzoyl(4-guanidino)}-[Aha][Nle]LR[β3hV]RP[Pra]W-OH; triazole 1-8) was tested. Which insulin level ([1]; 10 mg/kg daily, 12 weeks, vs vehicle treated/normal diet) did it give?
A: back to the control

Q: What about the “serum alanine aminotransferase (ALT) level vs vehicle” value [1, 3] of the same compound?
A: not associated with any significant effect

Q: And the “serum aspartate aminotransferase (AST) level vs vehicle” value [1, 3]?
A: not associated with any significant effect

Q: What about the total cholesterol level [1, 4] of the same compound?
A: remained high, despite a modest reduction; also recorded: improvement

Q: What about the triglycerides level [1, 4] of the same compound?
A: remained high, despite a modest reduction; also recorded: improvement

Q: What about the insulin level ([1]; 5 or 10 mg/kg i.p. daily, after 12 weeks of treatment, HFD mice) of the same compound?
A: normalization; also recorded: significant reduction; also recorded: improvement; also recorded: return to almost normal

Q: What about the “serum creatinine level vs vehicle” value [1, 5] of the same compound?
A: did not lead to any significant effect

Q: What about the “serum potassium (K+) level vs vehicle” value [1, 5] of the same compound?
A: did not lead to any significant effect

Q: And the “serum sodium (Na+) level vs vehicle” value [1, 5]?
A: did not lead to any significant effect

Q: And the “serum uric acid (UA) level vs vehicle” value ([1]; 5 or 10 mg/kg i.p. daily, Week 16 (Day 113) and Week 20 (Day 141))?
A: did not lead to any significant effect

Q: And the Insulin [1, 6]?
A: 909.5 pg/mL

Q: And the “Total Cholesterol” value [1, 6]?
A: 158.3 mg/dL

Q: What about the Triglyceride [1, 6] of the same compound?
A: 121.8 mg/dL

Q: What about the Insulin [1, 7] of the same compound?
A: 1983.8 pg/mL

Q: And the “Total Cholesterol” value [1, 7]?
A: 143.1 mg/dL

Q: What about the Triglyceride [1, 7] of the same compound?
A: 115.3 mg/dL

Q: And the “Total Cholesterol” value [1, 8]?
A: 135.6 mg/dL

Q: What about the Triglyceride [1, 8] of the same compound?
A: 108.9 mg/dL

Q: What about the Insulin [1, 9] of the same compound?
A: 1068.0 pg/mL

Q: What about the “Total Cholesterol” value [1, 9] of the same compound?
A: 155.6 mg/dL

Q: What about the Triglyceride [1, 9] of the same compound?
A: 122.9 mg/dL

Q: What about the Insulin [1, 10] of the same compound?
A: 1549.7 pg/mL

Q: What about the “Total Cholesterol” value [1, 10] of the same compound?
A: 135.7 mg/dL

Q: What about the Triglyceride [1, 10] of the same compound?
A: 108.3 mg/dL

Q: What about the Insulin [1, 11] of the same compound?
A: 957.0 * pg/mL

Q: What about the “Total Cholesterol” value [1, 11] of the same compound?
A: 132.1 mg/dL

Q: And the Triglyceride [1, 11]?
A: 102.1 mg/dL

Q: What about the “food intake, treated vs vehicle” value [2] of the same compound?
A: no change

Q: What about the “water intake, treated vs vehicle” value [2] of the same compound?
A: no change
